{"source": "ChEMBL document CHEMBL3044793", "about": "“Antihepatotoxic activity of ferolactone, a new furanocoumarin from Feronia limonia” (2012)", "key": {"Rattus norvegicus [1]": {"tested_on": "Rattus norvegicus", "test": "Hepatoprotective activity against CCl4-induced toxicity in Rattus norvegicus Wistar albino (rat) assessed as clear central vein at 50 mg/kg, po administered QD for 6 days measured on day 8 by hematoxylin and eosin staining-based microscopic analysis", "assay_type": "functional, organism-based", "design": "dose 50 mg/kg"}, "Rattus norvegicus [2]": {"tested_on": "Rattus norvegicus", "test": "Hepatoprotective activity in Rattus norvegicus Wistar albino (rat) assessed as reduction in CCl4-induced hepatocyte injury at 50 mg/kg, po administered QD for 6 days measured on day 8 by hematoxylin and eosin staining-based microscopic analysis", "assay_type": "functional, organism-based", "design": "dose 50 mg/kg"}, "Rattus norvegicus [3]": {"tested_on": "Rattus norvegicus", "test": "Hepatoprotective activity in Rattus norvegicus Wistar albino (rat) assessed as reduction in CCl4-induced increase in alkaline phosphatase level at 50 mg/kg, po administered QD for 6 days measured on day 8 relative to control", "assay_type": "functional", "design": "scale not given: the % may be the effect or the level left"}, "Rattus norvegicus [4]": {"tested_on": "Rattus norvegicus", "test": "Hepatoprotective activity in Rattus norvegicus Wistar albino (rat) assessed as reduction in CCl4-induced increase in SGOT level at 50 mg/kg, po administered QD for 6 days measured on day 8 by colorimetric analysis relative to ocntrol", "assay_type": "functional", "design": "scale not given: the % may be the effect or the level left"}, "Rattus norvegicus [5]": {"tested_on": "Rattus norvegicus", "test": "Hepatoprotective activity in Rattus norvegicus Wistar albino (rat) assessed as increase in CCl4-induced reduction in total protein level at 50 mg/kg, po administered QD for 6 days measured on day 8 relative to control", "assay_type": "functional", "design": "scale not given: the % may be the effect or the level left"}, "Rattus norvegicus [6]": {"tested_on": "Rattus norvegicus", "test": "Hepatoprotective activity in Rattus norvegicus Wistar albino (rat) assessed as reduction in CCl4-induced necrosis at 50 mg/kg, po administered QD for 6 days measured on day 8 by hematoxylin and eosin staining-based microscopic analysis", "assay_type": "functional, organism-based", "design": "dose 50 mg/kg"}, "Rattus norvegicus [7]": {"tested_on": "Rattus norvegicus", "test": "Hepatoprotective activity in Rattus norvegicus Wistar albino (rat) assessed as reduction in CCl4-induced increase in SGPT level at 50 mg/kg, po administered QD for 6 days measured on day 8 by colorimetric analysis relative to control", "assay_type": "functional", "design": "scale not given: the % may be the effect or the level left"}, "Rattus norvegicus [8]": {"tested_on": "Rattus norvegicus", "test": "Hepatoprotective activity in Rattus norvegicus Wistar albino (rat) assessed as reduction in CCl4-induced lymphocytic infiltration at 50 mg/kg, po administered QD for 6 days measured on day 8 by hematoxylin and eosin staining-based microscopic analysis", "assay_type": "functional, organism-based", "design": "dose 50 mg/kg"}, "Rattus norvegicus [9]": {"tested_on": "Rattus norvegicus", "test": "Hepatoprotective activity against CCl4-induced toxicity in Rattus norvegicus Wistar albino (rat) assessed as normal portal triad at 50 mg/kg, po administered QD for 6 days measured on day 8 by hematoxylin and eosin staining-based microscopic analysis", "assay_type": "functional, organism-based", "design": "dose 50 mg/kg"}, "Rattus norvegicus [10]": {"tested_on": "Rattus norvegicus", "test": "Hepatoprotective activity against CCl4-induced toxicity in Rattus norvegicus Wistar albino (rat) assessed as normal parenchyma at 50 mg/kg, po administered QD for 6 days measured on day 8 by hematoxylin and eosin staining-based microscopic analysis", "assay_type": "functional, organism-based", "design": "dose 50 mg/kg"}, "Rattus norvegicus [11]": {"tested_on": "Rattus norvegicus", "test": "Hepatoprotective activity in Rattus norvegicus Wistar albino (rat) assessed as reduction in CCl4-induced fatty accumulation at 50 mg/kg, po administered QD for 6 days measured on day 8 by hematoxylin and eosin staining-based microscopic analysis", "assay_type": "functional, organism-based", "design": "dose 50 mg/kg"}, "Rattus norvegicus [12]": {"tested_on": "Rattus norvegicus", "test": "Hepatoprotective activity against CCl4-induced toxicity in Rattus norvegicus Wistar albino (rat) assessed as total albumin level at 50 mg/kg, po administered QD for 6 days measured on day 8 (reference value: 2.33 +/- 0.18 g/dl)", "assay_type": "functional"}}, "note": "Activity calls are given as the source filed them. The rule behind the calls is not given here.", "data": [{"compound": "COc1c2ccoc2c(OC/C=C(\\C)CC2C=C(C)C(=O)O2)c2oc(=O)ccc12", "note": "(configuration not stated) [FEROLACTONE]", "values": [{"measurement": "Activity", "setting": "Rattus norvegicus [1]", "result": "Active"}, {"measurement": "Activity", "setting": "Rattus norvegicus [2]", "result": "Active"}, {"measurement": "Activity", "setting": "Rattus norvegicus [3]", "result": 41.16, "unit": "%"}, {"measurement": "Activity", "setting": "Rattus norvegicus [4]", "result": 43.44, "unit": "%"}, {"measurement": "Activity", "setting": "Rattus norvegicus [5]", "result": 36.15, "unit": "%"}, {"measurement": "Activity", "setting": "Rattus norvegicus [6]", "result": "Active"}, {"measurement": "Activity", "setting": "Rattus norvegicus [7]", "result": 39.63, "unit": "%"}, {"measurement": "Activity", "setting": "Rattus norvegicus [8]", "result": "Active"}, {"measurement": "Activity", "setting": "Rattus norvegicus [9]", "result": "Active"}, {"measurement": "Activity", "setting": "Rattus norvegicus [10]", "result": "Active"}, {"measurement": "Activity", "setting": "Rattus norvegicus [11]", "result": "Active"}, {"measurement": "Activity", "setting": "Rattus norvegicus [12]", "result": 3.44, "unit": "g/dL"}]}]}
